Data taken from ChEMBL document CHEMBL1201862, “PubChem BioAssay data set” (2004).
Activity calls are given as the source filed them.

Columns and labels:
cells = type: functional
[1] = biological target: T1, Rac GTPase-activating protein 1 (Homo sapiens, UniProt Q9H0H5); experiment: blockers of MgcRacGAP-driven Rac1 GTP hydrolysis – biochemical, ADP Hunter fluorescence, primary and confirmatory, confirmation (AID 624330); type: functional
T1 sequence (Q9H0H5 whole entry): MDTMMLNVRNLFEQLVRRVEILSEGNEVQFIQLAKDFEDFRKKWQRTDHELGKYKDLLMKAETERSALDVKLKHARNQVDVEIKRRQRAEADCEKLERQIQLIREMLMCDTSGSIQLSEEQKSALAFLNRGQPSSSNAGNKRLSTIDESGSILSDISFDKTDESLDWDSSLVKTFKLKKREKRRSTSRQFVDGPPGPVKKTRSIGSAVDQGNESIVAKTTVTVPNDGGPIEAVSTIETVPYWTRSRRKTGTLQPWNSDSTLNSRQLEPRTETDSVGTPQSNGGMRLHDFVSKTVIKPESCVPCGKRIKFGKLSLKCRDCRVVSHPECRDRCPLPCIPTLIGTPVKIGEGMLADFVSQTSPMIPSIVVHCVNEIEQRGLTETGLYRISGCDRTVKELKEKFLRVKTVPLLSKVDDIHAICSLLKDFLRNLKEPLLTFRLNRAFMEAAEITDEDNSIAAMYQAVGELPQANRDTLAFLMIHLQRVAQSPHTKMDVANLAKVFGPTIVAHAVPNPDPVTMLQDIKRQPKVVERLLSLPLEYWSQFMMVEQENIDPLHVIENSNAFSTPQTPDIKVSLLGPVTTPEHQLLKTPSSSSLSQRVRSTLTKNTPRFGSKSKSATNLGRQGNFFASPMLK

[2] = Luminescence Cell-Based Dose Confirmation HTS to Identify Activators of 5'UTR Stem-Loop Driven Alpha-Synuclein mRNA Translation in H4 Neuroglioblastoma Cells. [Related pubchem assays: 1829 (Project Summary), 1814 (Primary HTS)]; type: functional
[3] = Luminescence Cell-Based Dose Response HTS to Identify Activators of Luciferase Translation or Activity in H4 […] Cells. [Related pubchem assays: 1829 (Project Summary), 1814 (Primary HTS)]; type: functional
H4 = experiment: Luminescence Cell-Based Dose Response HTS to Identify Activators of 5'UTR Stem-Loop Driven Prion Protein mRNA Translation in H4 Neuroglioblastoma Cells. [Related pubchem assays: 1829 (Project Summary), 1814 (Primary HTS)]; type: functional; conditions: Homo sapiens
[4] = biological target: T2, Zinc finger protein mex-5 (Caenorhabditis elegans, UniProt Q9XUB2); experiment: potency of MEX-5 RNA-binding blockers – biochemical, C. elegans, fluorescence polarization, dose response (AID 1960)
T2 sequence (Q9XUB2 whole entry): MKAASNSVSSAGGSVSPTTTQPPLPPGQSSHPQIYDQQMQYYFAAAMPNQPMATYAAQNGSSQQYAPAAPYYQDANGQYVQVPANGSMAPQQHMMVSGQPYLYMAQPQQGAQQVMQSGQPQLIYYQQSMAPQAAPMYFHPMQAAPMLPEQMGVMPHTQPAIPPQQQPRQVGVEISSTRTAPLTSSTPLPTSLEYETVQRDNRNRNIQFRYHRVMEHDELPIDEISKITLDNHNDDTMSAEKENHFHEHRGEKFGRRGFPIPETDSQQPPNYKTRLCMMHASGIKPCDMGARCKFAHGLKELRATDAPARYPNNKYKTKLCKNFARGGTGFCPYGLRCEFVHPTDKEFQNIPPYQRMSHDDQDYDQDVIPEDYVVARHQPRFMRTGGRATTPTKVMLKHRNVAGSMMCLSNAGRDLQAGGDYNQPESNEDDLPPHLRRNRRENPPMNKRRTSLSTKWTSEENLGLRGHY

[5] = biological target: T3, RNA-binding protein pos-1 (Caenorhabditis elegans, UniProt G5EF15); experiment: disruptors of C. elegans POS-1 RNA interaction – biochemical, fluorescence polarization, dose response (AID 1964);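 further: purified POS-1 fused to maltose binding protein made in E. coli; potency of compounds blocking POS-1 binding to fluorescent RNA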
T3 sequence (G5EF15 whole entry): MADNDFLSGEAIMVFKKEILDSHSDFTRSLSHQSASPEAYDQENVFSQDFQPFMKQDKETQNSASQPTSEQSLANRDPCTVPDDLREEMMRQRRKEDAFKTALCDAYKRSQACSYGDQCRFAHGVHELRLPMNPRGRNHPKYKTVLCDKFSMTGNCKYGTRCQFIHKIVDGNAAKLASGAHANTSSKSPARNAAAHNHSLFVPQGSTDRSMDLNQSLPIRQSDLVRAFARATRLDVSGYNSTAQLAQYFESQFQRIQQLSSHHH

[6] = non-specific 3'UTR reporter inhibition in Clone20-Shn3RL – cell-based, Renilla luciferase, cherry-picked, counter-screen for Shn3 inhibitor project, dose response (AID 624133); type: functional
[7] = loss of viability in HepG2 cells – cell-based, CellTiter-Glo, cherry-picked, cytotoxicity control for Shn3 inhibitor project, dose response (AID 624134); type: functional
[8] = reduction of Shn3 3'UTR-driven luciferase in osteoblasts – cell-based, Clone20 osteoblasts, firefly luciferase, cherry-picked, dose response (AID 624132); type: functional;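 further: firefly luciferase luminescence from reporter carrying the Shn3 3'UTR in osteoblasts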
[9] = Trypanosoma cruzi growth suppression in host cells – NIH3T3 host cells, beta-gal luminescence, confirmation (AID 2044); type: functional, cell-based;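 further: intracellular parasites grown in NIH/3T3 mouse fibroblasts as host cells; luminescent beta-galactosidase reporter signal from transgenic T. cruzi replicating inside host cells; inhibitors lower the luminescence signal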
[10] = NIH3T3 cell viability loss – ATP luminescence, mouse fibroblasts, counter-screen, dose response (AID 2010); type: functional, cell-based;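 further: cells exposed to compound for about 90 hours before reading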
[11] = biological target: Luciferin 4-monooxygenase (Photinus pyralis, UniProt P08659); experiment: inhibition of purified Photinus pyralis luciferase – biochemical, luminescence, dose response (AID 1891)
Sequence of Luciferin 4-monooxygenase (P08659 whole entry): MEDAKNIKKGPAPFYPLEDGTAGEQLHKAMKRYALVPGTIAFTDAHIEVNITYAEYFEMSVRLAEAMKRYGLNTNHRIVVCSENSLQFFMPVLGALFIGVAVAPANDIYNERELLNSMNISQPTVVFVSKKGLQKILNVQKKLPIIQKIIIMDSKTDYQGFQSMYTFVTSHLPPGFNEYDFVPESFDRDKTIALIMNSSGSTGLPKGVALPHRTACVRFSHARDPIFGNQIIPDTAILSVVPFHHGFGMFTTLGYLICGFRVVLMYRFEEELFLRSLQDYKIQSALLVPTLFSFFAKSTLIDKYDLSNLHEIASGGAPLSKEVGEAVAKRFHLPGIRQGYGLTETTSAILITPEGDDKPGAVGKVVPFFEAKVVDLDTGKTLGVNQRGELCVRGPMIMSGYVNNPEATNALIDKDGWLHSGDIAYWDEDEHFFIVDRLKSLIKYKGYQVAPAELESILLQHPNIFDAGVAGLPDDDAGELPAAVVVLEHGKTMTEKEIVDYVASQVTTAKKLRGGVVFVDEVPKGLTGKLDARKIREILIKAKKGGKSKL

[12] = Luminescence Cell-Based Dose Confirmation HTS to Identify Inhibitors of Platelet Dense Granule Release. [Related pubchem assays: 1663 (Primary HTS), 1678 (Summary of Project)]; type: functional
P388/ADR = experiment: cells; type: functional; conditions: Mus musculus
SN12K1 = experiment: cells; type: functional; conditions: Homo sapiens
P388 = experiment: cells; type: functional; conditions: Mus musculus
[13] = P. falciparum Dd2 growth inhibitors, dose response, SYBR Green, cherry-picked samples (AID 1159567); type: functional, cell-based

SMILES | EC50 [2] | EC50 [3] | EC50 (H4) | GI50 (P388/ADR) | GI50 (P388) | further results
c1ccc(-c2ccccc2OCCCCn2ccnc2)cc1 | – | – | – | – | – | IC50 (cells): 18.1 µM (active); IC50 [1]: 127 µM (active)
CCOC(=O)c1cc(C)n(CCc2ccccc2)c1C | > 120 µM (not active) | 15.7 µM (active) | > 120 µM (not active) | – | – | –
CCc1cccc(NC(=O)Nc2cccs2)c1 | 14.6 µM (active) | 2.48 µM (active) | > 120 µM (not active) | – | – | –
CC(=O)c1ccc2c(c1)C1C=CCC1C(c1ccncc1)N2 (stereo not given) | 14.4 µM (active) | 9.61 µM (active) | 25.5 µM (active) | – | – | EC50 [4]: 47.7 µM (active); EC50 [5]: > 300 µM (not active)
COc1ccc(C(=O)C(C)OC(=O)c2cccc(S(=O)(=O)Nc3cc(Cl)c(OC)cc3OC)c2)cc1 (stereo not given) | – | – | – | – | – | AC50 [6]: 28.6 µM (active); AC50 [7]: > 70 µM (inactive); AC50 [8]: 5.54 µM (active)
CCCOC1CCCN(C(=O)c2cc(COc3cncc(Cl)c3)on2)C1 (stereo not given) | 3.46 µM (active) | 47.5 µM (active) | 59.7 µM (active) | – | – | –
O=C(Nc1ccccc1F)c1ccc2nc(N3C(=O)CCC3=O)sc2c1 | 29.8 µM (active) | 32.5 µM (active) | 8.54 µM (active) | – | – | –
CCCCNC(=O)COC(=O)c1cc(Br)ccc1Cl | – | – | – | – | – | IC50 (cells): 9.24 µM (active)
CCN(CC)CCNC(=O)c1nn(-c2ccc(C)cc2)c(=O)c2c1c1ccccc1n2C | 15 µM (active) | > 120 µM (not active) | 61.3 µM (active) | – | – | EC50 [9]: 0.157 µM (active); EC50 [10]: > 30 µM (not active)
COc1cc(O)c2c(=O)c(-c3ccc(O[C@@H]4O[C@H](CO)[C@@H](O)[C@H](O)[C@H]4O)cc3)coc2c1 | 0.25 µM (active) | 38.6 µM (active) | 21.2 µM (active) | – | – | –
O=C(/C=C/c1ccccc1Cl)Nc1ccncc1 | 26.2 µM (active) | 56.2 µM (active) | 0.524 µM (active) | – | – | EC50 [11]: 20.6 µM (active); EC50 [12]: 26.7 µM (active)
Cc1cc(-c2sccc2Br)nc(-n2cccc2)n1 | > 120 µM (not active) | 13.3 µM (active) | 9.52 µM (active) | – | – | –
C=C1CC(COc2cc(=O)oc3ccccc23)(c2ccccc2)OC1=O (stereo not given) | – | – | – | – | – | AC50 [6]: 7.58 µM (active); AC50 [7]: 13.7 µM (active); AC50 [8]: 3.93 µM (active)
CC(C)(C)OC(=O)NCCCCCNC(=O)c1[nH]cnc1C(=O)NCc1ccc(CNC(=O)OC(C)(C)C)cc1 | – | – | – | – | – | AC50 [6]: 8.62 µM (active); AC50 [7]: > 70 µM (inactive); AC50 [8]: 3.95 µM (active)
CCN1CC2(CO)CCC(OC)C34C5CC6C(OC)CC(O)(C5C6OC)C(O)(C(OC)C23)C14 (stereo not given) | – | – | – | > 80.7 µM (inactive) | > 174 µM (inactive) | GI50 (SN12K1): > 375 µM (inactive)
O=C(O)CCC(NC(=O)c1ccc(Nc2nc3ccc(C(F)(F)F)cc3nc2-c2ccccc2)cc1)C(=O)O (stereo not given) | – | – | – | 71.1 µM (inactive) | 35 µM (inactive) | GI50 (SN12K1): > 100 µM (inactive)
Cn1c(-c2ccccc2)cc(-c2cccs2)c1-c1cccs1 | – | – | – | 33.2 µM (inactive) | 10.8 µM (inactive) | GI50 (SN12K1): 18.1 µM (inactive)
C=C1C(=O)OC2CC3(C)OC3C3OC3C3=CC(OC3=O)C12 (stereo not given) | – | – | – | – | – | AC50 [6]: 1.86 µM (active); AC50 [7]: 19.2 µM (active); AC50 [8]: 1.45 µM (active)
Cn1cccc1/C=N/NC(=O)c1ccncc1 | – | – | – | – | – | IC50 (cells): 0.75 µM (active)
O=CNc1cccc2c3c([nH]c12)CCCCCC3 | – | – | – | 73.1 µM (inactive) | > 65.3 µM (inactive) | GI50 (SN12K1): > 100 µM (inactive)
CC1[C@@H]2CC=C3[C@H]4CCC5Cc6nc7c(nc6C[C@@]5(C)C4(O)CC(=O)[C@]32CO[C@]12OC(C)(C)CC2O)CC1CC[C@@H]2C3=C[C@H]4O[C@@]5(O[C@@](C)(CO)C[C@@H]5O)C(C)[C@@]4(O)[C@]3(C)[C@@H](O)CC2[C@]1(C)C7 (stereo not given in full) | – | – | – | 0.00879 µM (active) | 0.00036 µM (active) | –
CN(C)CCNCc1c2ccccc2c(CNCCN(C)C)c2ccccc12 | – | – | – | > 100 µM (inactive) | 36.9 µM (inactive) | GI50 (SN12K1): 25 µM (inactive)
O=C(N/N=C/c1ccccn1)c1cccc(S(=O)(=O)Nc2ccccc2Cl)c1 | – | – | – | – | – | IC50 (cells): 47.1 µM (active)
O=C(N/N=C/c1cccc2nccnc12)c1ccncc1 | – | – | – | – | – | IC50 (cells): 0.21 µM (active)
C/C=C/c1ccc2c(c1)[C@H]1[C@H](CCN1C(=O)c1ccc3c(c1)OCO3)[C@H](CO)N2 | – | – | – | – | – | AC50 [13]: 6.34 µM (active)
C[C@H](CO)N1C[C@H](C)[C@@H](CN(C)C(=O)c2ccccc2F)Oc2ncc(C#Cc3ccccc3)cc2C1=O | – | – | – | – | – | AC50 [13]: 4.79 µM (active)
O=C(N/N=C/C=C/c1ccccc1[N+](=O)[O-])c1ccncc1 | – | – | – | – | – | IC50 (cells): 0.4 µM (active)
Nc1nc(=O)n(C2OC(CO)C(O)C2O)cc1F (stereo not given) | – | – | – | 0.016 µM (active) | < 0.0107 µM (active) | GI50 (SN12K1): 0.0705 µM (active)
O[C@H]1[C@H](O)[C@@H](O)CN2CC[C@H](O)[C@H]12 [CASTANOSPERMINE] | – | – | – | > 91 µM (inactive) | > 100 µM (inactive) | GI50 (SN12K1): > 100 µM (inactive)
CN(C)/N=N/c1[nH]cnc1C(N)=O [DACARBAZINE] | – | – | – | 40.3 µM (inactive) | 19.3 µM (inactive) | GI50 (SN12K1): 28.6 µM (inactive)
